US11702422B2, “Imidazopyridazines as modulators of IL-17” (Janssen Pharmaceutica NV, priority 2020, dated 2023)

Columns and labels:
[1] = target: IL-17A(FLAG-Tagged): IL-17RA(His-Tagged) (Homo sapiens, UniProt Q16552, K93Q); assay: IL-17A(FLAG-Tagged): IL-17RA(His-Tagged) Binding Disruption Eu-HTRF Assay; settings: IL-17A/IL-17RA binding disruption, simple average if tested more than once
Outline: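 IC50 comes from a one-site competition fit of the HTRF 665/620 nm ratio. Compound dilutions (2-fold, 22 points) were held 1 h rt with FLAG-tagged IL-17A dimer, then His-tagged IL-17RA plus Eu-cryptate anti-FLAG and D2 anti-His antibodies were added for 2 h rt.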

[2] = tested on: IL-17A-induced G-CSF production in human normal keratinocyte (NHK); assay: NHK Assay: IL-17A-induced G-CSF production in human normal keratinocytes; type: cell-based; settings: 24 h, adult normal human keratinocytes, IL-17A 5 ng/mL, simple average if tested more than once
Outline: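 Adult normal human keratinocytes were seeded at 3000-4000 cells/well. Recombinant human IL-17A was pre-incubated 1 h at rt with titrated compound, then added to cells (final 5 ng/mL IL-17A, 0.2% DMSO, 5% FBS) for 24 h at 37° C. Supernatant G-CSF was measured by HTRF against a standard curve to give IC50.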

Sequence of UniProt Q16552 (Q16552 with tags, fused parts or gaps K93Q): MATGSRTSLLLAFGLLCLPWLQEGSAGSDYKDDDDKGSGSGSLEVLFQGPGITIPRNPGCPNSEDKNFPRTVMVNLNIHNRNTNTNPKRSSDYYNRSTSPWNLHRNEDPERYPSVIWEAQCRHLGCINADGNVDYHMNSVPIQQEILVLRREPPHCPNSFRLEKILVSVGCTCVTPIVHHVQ

Row | IC50 [1] | Compound | IC50 ([2]; Homo sapiens, Keratinocyte) | IC50 [2]
1 | 63 nM | Cn1nccc1C(=O)N[C@H](c1cn2ncc(C(NC(=O)CC3CC(F)(F)C3)C3CC3)cc2n1)C1CCC(F)(F)CC1 (single isomer, unassigned) [Example 24, N—((S)-(7-((R*)-Cyclopropyl(2-(3,3-difluorocyclobutyl)acetamido)methyl)imidazo[1,2-b]pyridazin-2-yl)(4,4-difluorocyclohexyl)methyl)-1-methyl-1H-pyrazole-5-carboxamide] | 84 nM | 
2 | 68 nM | O=C(CC1CC(F)(F)C1)NC(c1cnn2cc([C@@H](NC(=O)c3cnn(CC4CC4)n3)C3CCC(F)(F)CC3)nc2c1)C1CC1 (single isomer, unassigned) [Example 26, N—((S)-(7-((R*)-Cyclopropyl(2-(3,3-difluorocyclobutyl)acetamido)methyl)imidazo[1,2-b]pyridazin-2-yl)(4,4-difluorocyclohexyl)methyl)-2-(cyclopropylmethyl)-2H-1,2,3-triazole-4-carboxamide] | 230 nM | 
3 | 100 nM | O=C(CCC(F)(F)F)NC(c1cnn2cc([C@@H](NC(=O)c3cnn(CC(F)(F)F)n3)C3CCC(F)(F)CC3)nc2c1)C1CC1 (single isomer, unassigned) [Example 27, N—((S)-(7-((R*)-Cyclopropyl(4,4,4-trifluorobutanamido)methyl)imidazo[1,2-b]pyridazin-2-yl)(4,4-difluorocyclohexyl)methyl)-2-(2,2,2-trifluoroethyl)-2H-1,2,3-triazole-4-carboxamide] | 650 nM | 
4 | 46 nM | CC(C)(C)[C@@H](O)C(=O)NC(c1cnn2cc([C@@H](NC(=O)c3cnn(CC4CC4)n3)C3CCC(F)(F)CC3)nc2c1)C1CC1 (single isomer, unassigned) [Example 29, N—((S)-(7-((R*)-Cyclopropyl((R)-2-hydroxy-3,3-dimethylbutanamido)methyl)imidazo[1,2-b]pyridazin-2-yl)(4,4-difluorocyclohexyl)methyl)-2-(cyclopropylmethyl)-2H-1,2,3-triazole-4-carboxamide] | 370 nM | 
5 | 12000 nM | Cc1c(C(=O)N[C@H](c2cn3ncc(C(NC(=O)CC4CC(F)(F)C4)C4CC4)cc3n2)C2CCC(F)(F)CC2)cnn1CCC(F)(F)F (single isomer, unassigned) [Example 51, N—((S)-(7-((S*)-Cyclopropyl(2-(3,3-difluorocyclobutyl)acetamido)methyl)imidazo[1,2-b]pyridazin-2-yl)(4,4-difluorocyclohexyl)methyl)-5-methyl-1-(3,3,3-trifluoropropyl)-1H-pyrazole-4-carboxamide] |  | ~18000 nM
6 | 280 nM | Cc1c(C(=O)N[C@H](c2cn3ncc(C(NC(=O)CC4CC(F)(F)C4)C4CC4)cc3n2)C2CCC(F)(F)CC2)cnn1CCC(F)(F)F (single isomer, unassigned) [Example 52, N—((S)-(7-((R*)-Cyclopropyl(2-(3,3-difluorocyclobutyl)acetamido)methyl)imidazo[1,2-b]pyridazin-2-yl)(4,4-difluorocyclohexyl)methyl)-5-methyl-1-(3,3,3-trifluoropropyl)-1H-pyrazole-4-carboxamide] |  | 670 nM
7 | 11000 nM | Cc1c(C(=O)N[C@H](c2cn3ncc(C(NC(=O)CCC(F)(F)F)C4CC4)cc3n2)C2CCC(F)(F)CC2)cnn1CCC(F)(F)F (single isomer, unassigned) [Example 53, N—((S)-(7-((S*)-Cyclopropyl(4,4,4-trifluorobutanamido)methyl)imidazo[1,2-b]pyridazin-2-yl)(4,4-difluorocyclohexyl)methyl)-5-methyl-1-(3,3,3-trifluoropropyl)-1H-pyrazole-4-carboxamide] |  | > 20000 nM
8 | 320 nM | Cc1c(C(=O)N[C@H](c2cn3ncc(C(NC(=O)CCC(F)(F)F)C4CC4)cc3n2)C2CCC(F)(F)CC2)cnn1CCC(F)(F)F (single isomer, unassigned) [Example 54, N—((S)-(7-((R*)-Cyclopropyl(4,4,4-trifluorobutanamido)methyl)imidazo[1,2-b]pyridazin-2-yl)(4,4-difluorocyclohexyl)methyl)-5-methyl-1-(3,3,3-trifluoropropyl)-1H-pyrazole-4-carboxamide] |  | 710 nM
9 | 100 nM | O=C(CCC(F)(F)F)NC(c1cnn2cc([C@@H](NC(=O)c3cnnn3CCC(F)(F)F)C3CCC(F)(F)CC3)nc2c1)C1CC1 (single isomer, unassigned) [Example 71, N—((S)-(7-((R*)-Cyclopropyl(4,4,4-trifluorobutanamido)methyl)imidazo[1,2-b]pyridazin-2-yl)(4,4-difluorocyclohexyl)methyl)-1-(3,3,3-trifluoropropyl)-1H-1,2,3-triazole-5-carboxamide] | 180 nM | 
10 | 78 nM | O=C(CC1CC(F)(F)C1)NC(c1cnn2cc([C@@H](NC(=O)c3cnnn3CCC(F)(F)F)C3CCC(F)(F)CC3)nc2c1)C1CC1 (single isomer, unassigned) [Example 72, N—((S)-(7-((S*)-Cyclopropyl(2-(3,3-difluorocyclobutyl)acetamido)methyl)imidazo[1,2-b]pyridazin-2-yl)(4,4-difluorocyclohexyl)methyl)-1-(3,3,3-trifluoropropyl)-1H-1,2,3-triazole-5-carboxamide] |  | 86 nM
11 | 1900 nM | O=C(CC1CC(F)(F)C1)NC(c1cnn2cc([C@@H](NC(=O)c3cnnn3CCC(F)(F)F)C3CCC(F)(F)CC3)nc2c1)C1CC1 (single isomer, unassigned) [Example 73, N—((S)-(7-((R*)-Cyclopropyl(2-(3,3-difluorocyclobutyl)acetamido)methyl)imidazo[1,2-b]pyridazin-2-yl)(4,4-difluorocyclohexyl)methyl)-1-(3,3,3-trifluoropropyl)-1H-1,2,3-triazole-5-carboxamide] |  | ~15000 nM
12 | 190 nM | CC(n1nccc1C(=O)N[C@H](c1cn2ncc([C@H](NC(=O)CCC(F)(F)F)C3CC3)cc2n1)C1CCC(F)(F)CC1)C(F)(F)F (single isomer, unassigned) [Example 115, N—((S)-(7-((R)-Cyclopropyl(4,4,4-trifluorobutanamido)methyl)imidazo[1,2-b]pyridazin-2-yl)(4,4-difluorocyclohexyl)methyl)-1-((R*)-1,1,1-trifluoropropan-2-yl)-1H-pyrazole-5-carboxamide] | 140 nM | 
13 | 100 nM | CC(n1nccc1C(=O)N[C@H](c1cn2ncc([C@H](NC(=O)CCC(F)(F)F)C3CC3)cc2n1)C1CCC(F)(F)CC1)C(F)(F)F (single isomer, unassigned) [Example 116, N—((S)-(7-((R)-Cyclopropyl(4,4,4-trifluorobutanamido)methyl)imidazo[1,2-b]pyridazin-2-yl)(4,4-difluorocyclohexyl)methyl)-1-((S*)-1,1,1-trifluoropropan-2-yl)-1H-pyrazole-5-carboxamide] |  | 210 nM
14 | 88 nM | CC(C)n1nccc1C(=O)N[C@H](c1cn2ncc([C@H](NC(=O)CC(C)C(F)(F)F)C3CC3)cc2n1)C1CCC(F)(F)CC1 (single isomer, unassigned) [Example 121, N—((S)-(7-((R)-Cyclopropyl((R*)-4,4,4-trifluoro-3-methylbutanamido)methyl)imidazo[1,2-b]pyridazin-2-yl)(4,4-difluorocyclohexyl)methyl)-1-isopropyl-1H-pyrazole-5-carboxamide] | 110 nM | 
15 | 110 nM | CC(C)n1nccc1C(=O)N[C@H](c1cn2ncc([C@H](NC(=O)CC(C)C(F)(F)F)C3CC3)cc2n1)C1CCC(F)(F)CC1 (single isomer, unassigned) [Example 122, N—((S)-(7-((R)-Cyclopropyl((S*)-4,4,4-trifluoro-3-methylbutanamido)methyl)imidazo[1,2-b]pyridazin-2-yl)(4,4-difluorocyclohexyl)methyl)-1-isopropyl-1H-pyrazole-5-carboxamide] |  | 220 nM
16 | 55 nM | Cc1nocc1C(=O)N[C@H](c1cn2ncc([C@H](NC(=O)CC(C)C(F)(F)F)C3CC3)cc2n1)C1CCC(F)(F)CC1 (single isomer, unassigned) [Example 123, N—((S)-(7-((R)-Cyclopropyl((R*)-4,4,4-trifluoro-3-methylbutanamido)methyl)imidazo[1,2-b]pyridazin-2-yl)(4,4-difluorocyclohexyl)methyl)-3-methylisoxazole-4-carboxamide] |  | 130 nM
17 | 110 nM | Cc1nocc1C(=O)N[C@H](c1cn2ncc([C@H](NC(=O)CC(C)C(F)(F)F)C3CC3)cc2n1)C1CCC(F)(F)CC1 (single isomer, unassigned) [Example 124, N—((S)-(7-((R)-Cyclopropyl((S*)-4,4,4-trifluoro-3-methylbutanamido)methyl)imidazo[1,2-b]pyridazin-2-yl)(4,4-difluorocyclohexyl)methyl)-3-methylisoxazole-4-carboxamide] |  | 690 nM
18 | 32 nM | CC(CC(=O)N[C@@H](c1cnn2cc([C@@H](NC(=O)c3conc3C3CC3)C3CCC(F)(F)CC3)nc2c1)C1CC1)C(F)(F)F (single isomer, unassigned) [Example 128, 3-Cyclopropyl-N—((S)-(7-((R)-cyclopropyl((R*)-4,4,4-trifluoro-3-methylbutanamido)methyl)imidazo[1,2-b]pyridazin-2-yl)(4,4-difluorocyclohexyl)methyl)isoxazole-4-carboxamide] |  | 96 nM
